Columns and labels:
Assay in all cases: biochemical
Details in all cases: read-out: % inhibition mean (Lanthascreen)
ABL1 Q252H = ABL1 Q252H (Homo sapiens, UniProt P00519, Q252H)
ACVR2A = ACVR2A (Homo sapiens, UniProt P27037)
ACVRL1 (ALK1) = ACVRL1 (ALK1) (Homo sapiens, UniProt P37023)
ALK L1196M = ALK L1196M (Homo sapiens, UniProt Q9UM73, L1196M)
BMPR2 = BMPR2 (Homo sapiens, UniProt Q13873)
CDK3/cyclin E1 = CDK3/cyclin E1 (Homo sapiens, UniProt Q00526)
CDK5 (Inactive) = CDK5 (Inactive) (Homo sapiens, UniProt Q00535)
CDK9 (Inactive) = CDK9 (Inactive) (Homo sapiens, UniProt P50750)
CLK4 = CLK4 (Homo sapiens, UniProt Q9HAZ1)
DDR1 = DDR1 (Homo sapiens, UniProt Q08345)
DDR2 = DDR2 (Homo sapiens, UniProt Q16832)
ERN1 = ERN1 (Homo sapiens, UniProt O75460)
ERN2 = ERN2 (Homo sapiens, UniProt Q76MJ5)
MAP3K14 (NIK) = MAP3K14 (NIK) (Homo sapiens, UniProt Q99558)
MAP3K5 (ASK1) = MAP3K5 (ASK1) (Homo sapiens, UniProt Q99683)
MAPK15 (ERK7) = MAPK15 (ERK7) (Homo sapiens, UniProt Q8TD08)
MKNK2 (MNK2) = MKNK2 (MNK2) (Homo sapiens, UniProt Q9HBH9)
MYLK4 = MYLK4 (Homo sapiens, UniProt Q86YV6)
MYLK4, sequence (Q86YV6 whole entry): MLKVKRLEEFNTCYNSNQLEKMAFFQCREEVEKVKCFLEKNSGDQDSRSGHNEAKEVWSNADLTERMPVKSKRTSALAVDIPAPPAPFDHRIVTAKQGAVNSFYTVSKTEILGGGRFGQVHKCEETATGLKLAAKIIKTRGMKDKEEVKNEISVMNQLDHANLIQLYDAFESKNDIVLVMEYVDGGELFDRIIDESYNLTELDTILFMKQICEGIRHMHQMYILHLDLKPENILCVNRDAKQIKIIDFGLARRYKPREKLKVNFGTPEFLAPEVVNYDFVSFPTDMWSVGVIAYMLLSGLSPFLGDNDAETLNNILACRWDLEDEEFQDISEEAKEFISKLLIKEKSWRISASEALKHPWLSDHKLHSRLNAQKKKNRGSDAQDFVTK

MYO3A (MYO3 alpha) = MYO3A (MYO3 alpha) (Homo sapiens, UniProt Q8NEV4)
RET V804M = RET V804M (Homo sapiens, UniProt P07949, V804M)
RET V804M, sequence (P07949 whole entry V804M): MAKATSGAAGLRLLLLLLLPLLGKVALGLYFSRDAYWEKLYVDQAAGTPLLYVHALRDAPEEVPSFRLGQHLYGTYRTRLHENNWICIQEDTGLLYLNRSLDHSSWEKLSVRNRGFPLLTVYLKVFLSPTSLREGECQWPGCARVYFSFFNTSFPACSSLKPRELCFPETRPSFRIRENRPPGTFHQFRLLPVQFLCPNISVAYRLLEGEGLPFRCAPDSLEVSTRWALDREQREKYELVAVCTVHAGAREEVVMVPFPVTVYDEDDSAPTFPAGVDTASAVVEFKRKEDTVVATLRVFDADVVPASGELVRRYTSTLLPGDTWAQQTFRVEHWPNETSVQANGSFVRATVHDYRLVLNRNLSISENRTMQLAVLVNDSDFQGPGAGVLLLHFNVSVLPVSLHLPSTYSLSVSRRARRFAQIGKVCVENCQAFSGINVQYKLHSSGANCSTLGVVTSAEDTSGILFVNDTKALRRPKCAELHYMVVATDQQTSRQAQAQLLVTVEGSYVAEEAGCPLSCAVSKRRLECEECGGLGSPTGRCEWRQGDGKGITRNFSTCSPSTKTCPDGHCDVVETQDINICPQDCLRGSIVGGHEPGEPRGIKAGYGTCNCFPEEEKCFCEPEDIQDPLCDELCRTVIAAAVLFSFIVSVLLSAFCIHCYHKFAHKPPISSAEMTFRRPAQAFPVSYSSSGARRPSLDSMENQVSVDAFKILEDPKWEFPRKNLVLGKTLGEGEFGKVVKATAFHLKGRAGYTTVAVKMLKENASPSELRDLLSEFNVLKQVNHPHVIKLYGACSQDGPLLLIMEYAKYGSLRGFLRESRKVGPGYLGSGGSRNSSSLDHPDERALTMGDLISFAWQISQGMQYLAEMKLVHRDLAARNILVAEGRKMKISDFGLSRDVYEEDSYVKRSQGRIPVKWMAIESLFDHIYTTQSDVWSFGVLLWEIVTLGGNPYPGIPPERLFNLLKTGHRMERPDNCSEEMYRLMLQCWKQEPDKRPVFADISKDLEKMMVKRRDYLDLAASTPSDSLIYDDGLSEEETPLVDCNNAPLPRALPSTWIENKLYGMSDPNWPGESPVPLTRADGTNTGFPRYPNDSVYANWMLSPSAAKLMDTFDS

SIK3 = SIK3 (Homo sapiens, UniProt Q9Y2K2)
SIK3, sequence (Q9Y2K2 whole entry): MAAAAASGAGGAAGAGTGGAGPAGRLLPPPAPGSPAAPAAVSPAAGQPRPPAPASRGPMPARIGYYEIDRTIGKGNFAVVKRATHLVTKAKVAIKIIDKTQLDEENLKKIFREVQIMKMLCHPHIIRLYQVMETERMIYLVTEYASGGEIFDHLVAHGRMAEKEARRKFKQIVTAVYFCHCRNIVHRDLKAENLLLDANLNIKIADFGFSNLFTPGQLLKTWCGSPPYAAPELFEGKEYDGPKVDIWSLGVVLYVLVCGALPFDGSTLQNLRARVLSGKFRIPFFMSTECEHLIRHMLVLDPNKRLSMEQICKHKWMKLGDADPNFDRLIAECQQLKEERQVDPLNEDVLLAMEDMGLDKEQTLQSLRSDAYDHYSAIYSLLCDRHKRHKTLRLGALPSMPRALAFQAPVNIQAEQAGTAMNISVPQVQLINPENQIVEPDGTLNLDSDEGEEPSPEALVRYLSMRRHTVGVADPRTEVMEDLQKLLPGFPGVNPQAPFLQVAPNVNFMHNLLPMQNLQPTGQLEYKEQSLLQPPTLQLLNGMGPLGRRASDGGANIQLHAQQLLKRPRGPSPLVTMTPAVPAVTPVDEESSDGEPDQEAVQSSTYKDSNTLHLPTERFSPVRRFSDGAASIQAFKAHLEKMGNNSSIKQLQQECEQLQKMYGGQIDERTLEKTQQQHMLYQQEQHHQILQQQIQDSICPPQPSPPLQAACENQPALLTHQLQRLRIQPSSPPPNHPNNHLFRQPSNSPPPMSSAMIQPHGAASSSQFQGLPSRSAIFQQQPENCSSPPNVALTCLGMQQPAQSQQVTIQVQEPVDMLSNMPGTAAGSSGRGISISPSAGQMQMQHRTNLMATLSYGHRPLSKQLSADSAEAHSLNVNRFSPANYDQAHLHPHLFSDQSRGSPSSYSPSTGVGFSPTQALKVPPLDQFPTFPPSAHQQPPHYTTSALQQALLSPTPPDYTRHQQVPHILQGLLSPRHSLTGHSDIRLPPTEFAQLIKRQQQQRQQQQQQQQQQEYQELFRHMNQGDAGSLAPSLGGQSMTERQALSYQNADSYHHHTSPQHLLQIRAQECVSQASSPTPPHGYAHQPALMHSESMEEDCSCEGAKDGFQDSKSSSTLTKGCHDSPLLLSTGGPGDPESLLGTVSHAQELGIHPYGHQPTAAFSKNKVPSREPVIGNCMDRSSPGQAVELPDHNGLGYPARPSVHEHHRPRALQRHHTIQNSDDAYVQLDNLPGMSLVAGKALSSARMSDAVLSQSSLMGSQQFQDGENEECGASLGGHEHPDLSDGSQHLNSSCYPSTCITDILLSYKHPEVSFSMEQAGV

STK16 (PKL12) = STK16 (PKL12) (Homo sapiens, UniProt O75716)
STK32C (YANK3) = STK32C (YANK3) (Homo sapiens, UniProt Q86UX6)
TAOK1 = TAOK1 (Homo sapiens, UniProt Q7L7X3)
TAOK1, sequence (Q7L7X3 whole entry): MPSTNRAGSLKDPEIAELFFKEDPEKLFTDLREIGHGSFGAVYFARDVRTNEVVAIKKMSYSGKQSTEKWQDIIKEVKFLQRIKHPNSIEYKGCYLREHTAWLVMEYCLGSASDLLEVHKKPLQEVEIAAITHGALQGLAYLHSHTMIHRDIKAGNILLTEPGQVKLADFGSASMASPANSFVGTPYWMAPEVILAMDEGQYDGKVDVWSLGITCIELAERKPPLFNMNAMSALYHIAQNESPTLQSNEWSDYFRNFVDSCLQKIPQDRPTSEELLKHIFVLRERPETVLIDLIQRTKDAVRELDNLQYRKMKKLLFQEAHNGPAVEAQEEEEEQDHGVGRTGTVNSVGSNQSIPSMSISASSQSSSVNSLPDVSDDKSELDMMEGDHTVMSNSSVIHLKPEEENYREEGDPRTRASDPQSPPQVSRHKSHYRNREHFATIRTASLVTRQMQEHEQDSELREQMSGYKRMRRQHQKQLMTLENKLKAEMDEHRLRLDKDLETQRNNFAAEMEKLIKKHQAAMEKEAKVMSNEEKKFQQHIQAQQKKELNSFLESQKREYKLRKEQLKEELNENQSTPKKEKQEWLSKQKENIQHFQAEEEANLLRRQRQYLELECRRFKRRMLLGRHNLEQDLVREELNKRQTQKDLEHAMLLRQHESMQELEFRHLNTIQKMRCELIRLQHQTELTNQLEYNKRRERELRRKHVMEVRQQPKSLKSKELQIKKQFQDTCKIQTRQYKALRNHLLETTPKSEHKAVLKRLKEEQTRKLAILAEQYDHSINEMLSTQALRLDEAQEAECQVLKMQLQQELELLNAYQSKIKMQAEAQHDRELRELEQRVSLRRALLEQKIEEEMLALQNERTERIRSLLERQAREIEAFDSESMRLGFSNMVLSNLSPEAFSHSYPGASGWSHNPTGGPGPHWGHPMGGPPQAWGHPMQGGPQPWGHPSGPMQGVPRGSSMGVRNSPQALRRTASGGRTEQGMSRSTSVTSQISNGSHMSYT

TEK (TIE2) R849W = TEK (TIE2) R849W (Homo sapiens, UniProt Q02763, R849W)
TEK (TIE2) Y1108F = TEK (TIE2) Y1108F (Homo sapiens, UniProt Q02763, Y1108F)
TLK2 = TLK2 (Homo sapiens, UniProt Q86UE8)
WNK2 = WNK2 (Homo sapiens, UniProt Q9Y3S1)

ACVR2A, sequence (P27037 whole entry): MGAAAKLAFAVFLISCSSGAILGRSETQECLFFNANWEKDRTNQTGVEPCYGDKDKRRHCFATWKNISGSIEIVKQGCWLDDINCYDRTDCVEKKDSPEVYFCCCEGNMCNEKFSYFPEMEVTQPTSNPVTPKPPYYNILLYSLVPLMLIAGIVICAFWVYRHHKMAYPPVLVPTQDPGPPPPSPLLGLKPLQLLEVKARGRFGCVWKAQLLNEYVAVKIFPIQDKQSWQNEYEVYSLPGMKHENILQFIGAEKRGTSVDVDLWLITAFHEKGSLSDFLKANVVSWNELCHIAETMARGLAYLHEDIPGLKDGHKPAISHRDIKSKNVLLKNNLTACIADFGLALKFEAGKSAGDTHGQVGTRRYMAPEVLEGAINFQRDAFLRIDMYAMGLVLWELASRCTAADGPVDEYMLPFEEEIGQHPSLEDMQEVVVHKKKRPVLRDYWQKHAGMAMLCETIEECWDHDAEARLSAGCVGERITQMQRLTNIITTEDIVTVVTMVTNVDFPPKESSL
CDK3/cyclin E1, sequence (Q00526 whole entry): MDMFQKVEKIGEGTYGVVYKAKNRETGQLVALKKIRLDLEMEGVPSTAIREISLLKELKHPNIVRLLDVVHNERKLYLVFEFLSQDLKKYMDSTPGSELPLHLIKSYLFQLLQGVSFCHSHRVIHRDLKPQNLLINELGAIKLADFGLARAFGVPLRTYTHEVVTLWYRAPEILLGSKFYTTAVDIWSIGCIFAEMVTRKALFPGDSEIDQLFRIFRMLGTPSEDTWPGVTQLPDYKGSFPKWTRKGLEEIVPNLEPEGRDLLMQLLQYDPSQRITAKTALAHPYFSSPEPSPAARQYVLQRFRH
CDK3/cyclin E1, sequence (P24864 whole entry, further chain): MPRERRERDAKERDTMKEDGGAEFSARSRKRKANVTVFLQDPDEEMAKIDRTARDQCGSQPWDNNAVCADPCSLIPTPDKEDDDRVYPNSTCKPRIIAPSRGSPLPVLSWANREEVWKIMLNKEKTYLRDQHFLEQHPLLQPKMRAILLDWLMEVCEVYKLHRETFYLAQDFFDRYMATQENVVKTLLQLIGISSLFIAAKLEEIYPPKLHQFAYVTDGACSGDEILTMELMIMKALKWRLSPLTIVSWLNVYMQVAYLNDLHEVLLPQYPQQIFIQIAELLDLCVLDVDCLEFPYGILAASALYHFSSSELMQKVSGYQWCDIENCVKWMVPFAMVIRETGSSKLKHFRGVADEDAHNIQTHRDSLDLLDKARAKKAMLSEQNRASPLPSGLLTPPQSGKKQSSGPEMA

COc1ccc2nc3cc(Cl)ccc3c(Nc3cc(CN4CCCC4)c(O)c(CN4CCCC4)c3)c2n1 [Pyronaridine, 4-[(7-Chloro-2-methoxybenzo[b][1,5]naphthyridin-10-yl)amino]-2,6-bis(1-pyrrolidinylmethyl)phenol phosphate (1:4)]
inhibition at 1 µM (ABL1 Q252H): -10% | inhibition at 1 µM (ACVR2A): -6% | inhibition at 1 µM (ACVRL1 (ALK1)): 12% | inhibition at 1 µM (ALK L1196M): -3% | inhibition at 1 µM (BMPR2): 8% | inhibition at 1 µM (CDK3/cyclin E1): 3% | inhibition at 1 µM (CDK5 (Inactive)): -1% | inhibition at 1 µM (CDK9 (Inactive)): -10% | inhibition at 1 µM (CLK4): 6% | inhibition at 1 µM (DDR1): -2% | inhibition at 1 µM (DDR2): 0% | inhibition at 1 µM (ERN1): 6% | inhibition at 1 µM (ERN2): 6% | inhibition at 1 µM (MAP3K14 (NIK)): 2% | inhibition at 1 µM (MAP3K5 (ASK1)): -11% | inhibition at 1 µM (MAPK15 (ERK7)): -11% | inhibition at 1 µM (MKNK2 (MNK2)): 2% | inhibition at 1 µM (MYLK4): -9% | inhibition at 1 µM (MYO3A (MYO3 alpha)): -6% | inhibition at 1 µM (RET V804M): -1% | inhibition at 1 µM (SIK3): -2% | inhibition at 1 µM (STK16 (PKL12)): 5% | inhibition at 1 µM (STK32C (YANK3)): 1% | inhibition at 1 µM (TAOK1): -4% | inhibition at 1 µM (TEK (TIE2) R849W): -3% | inhibition at 1 µM (TEK (TIE2) Y1108F): -2% | inhibition at 1 µM (TLK2): -2% | inhibition at 1 µM (WNK2): 4%
